These results are taken from paper PMC10035370, “Targeting Tumor Angiogenesis with the Selective VEGFR-3 Inhibitor EVT801 in Combination with Cancer Immunotherapy” (Cancer Research Communications, 2022).

The target in one assay is T1, VEGFR-3 (Mus musculus, UniProt P35917).
T1 construct: expressed in transfected cells; host or cells: HEK293T (inferred from the general description of the cellular assay)
As to the kind of experiment: Cellular VEGFR-3 autophosphorylation assay, mouse receptor. Type of assay: cell-based. The conditions noted are these: read-out: IC50 in cellular assays, VEGFR-3 autophosphorylation, mouse receptor. The procedure:
Transfection of HEK293T cells and Ba/F3 cells with VEGFR-1-Flag, VEGFR-2-Flag or VEGFR-3-Flag expression constructs was performed using Fugene-6 (Roche) as per manufacturer’s protocol. Briefly, Fugene-6 was pre-incubated with Opti-Mem (Gibco) before adding DNA. After 24 h, media was replaced with serum-free culture media containing 0.2 % BSA. On the next day, cells were incubated for 1 h in 1 mM orthovanadate, harvested, dissociated and distributed at 4 x 10^5 cells in 5 mL for HEK-VEGFR-1 and HEK-VEGFR-3, and 5 x 10^4 cells per 5 mL for HEK VEGFR-2 in the presence of EVT801 or SAR401849. After 30 min, the reaction was stopped by the addition of cold PBS supplemented with 1 mM orthovanadate. Cells were then lysed with 150 μl of RIPA buffer for 15 min at 4°C, then centrifuged for 10 min at 10,000 g. Supernatants (75 μl) were distributed in duplicate on 96 well plates that were precoated with the anti-flag, and left for 1 h at room temperature. After 3 washes, the anti-phosphotyrosine conjugated to the HRP was added and incubated for 1 h at room temperature. Wells were then washed 3 times with TBS buffer containing 0.5 % Tween-20 and 2 mM MgCl2. The reaction was stopped with 50 μL of 2 N H2SO4, and the signal was read with Envision at the wavelengths of 485 nm and 530 nm.

The target in another assay is VEGFR-2 (Homo sapiens, UniProt P35968). The assay is described as follows: Biochemical kinase assay (in vitro assay), VEGFR-2. The conditions noted are these: read-out: IC50 in biochemical assays, VEGFR-2. Also on record: expressed in transfected cells; host or cells: HEK293T. On the procedure:
Sigma protein kinase assay kits were used. 125 μL per well of Poly-Glu-Tyr (PGT) solution (250 μg/mL of PGT in PBS without Ca^2+, Mg^2+ and sodium bicarbonate) was added in a 96-well plate and overnight incubation was performed at 37 °C. The day after, coating solution was removed and wells were washed with 300 μL of PBS-Tween-20 0.05 %. The washing buffer was removed and wells were dried for 2 h at 37 °C. 90 μL of the kinase buffer was supplemented with ATP (30 μM for VEGFR-1 and VEGFR-3, and 15 μM for VEGFR-2), and the compound (EVT801 or SAR401849 at the indicated concentration or 1 % DMSO for the vehicle control). The phosphorylation reaction was initiated by the addition of 20 μL of kinase buffer without ATP supplemented with 100 ng of the tyrosine kinase (or without tyrosine kinase as control). Plates were incubated with gentle agitation at room temperature for 30 min. After 3 washes with 300 μL of washing buffer, 100 μL of phosphotyrosine specific monoclonal antibody conjugated to HRP (1:30,000) was added onto the phosphorylated PGT. Plates were incubated for 30 min at room temperature under gentle agitation. Then, 3 washes with 300 μL of washing buffer were performed. […] After 7 min at room temperature, the reaction was stopped by addition of 100 μL of […], and absorbance was determined with an Endvision spectrophotometer at 492 nm.

For the next assay, the system named is hLMVEC. The assay is described as follows: Growth factor-induced hLMVEC proliferation. In kind it is cell-based, human. The conditions noted are these: for IC50: Homo sapiens. On the procedure:
hLMVEC were seeded in white cell culture-treated flat and clear bottom multi-well plates and incubated at 37 °C overnight, before compounds were added. After incubation for 72 h at 37 °C, plates were equilibrated to ambient temperature for 1 h, and CellTiterGlo reagent (Promega) was added. After approximately 1h, luminescence was measured using a luminometer. Curves were fitted via sigmoidal dose response curves, and IC50 values were determined.

Where two headings read alike, the source gives them in different places.

Chain of VEGFR-2 (P35968 20-1356): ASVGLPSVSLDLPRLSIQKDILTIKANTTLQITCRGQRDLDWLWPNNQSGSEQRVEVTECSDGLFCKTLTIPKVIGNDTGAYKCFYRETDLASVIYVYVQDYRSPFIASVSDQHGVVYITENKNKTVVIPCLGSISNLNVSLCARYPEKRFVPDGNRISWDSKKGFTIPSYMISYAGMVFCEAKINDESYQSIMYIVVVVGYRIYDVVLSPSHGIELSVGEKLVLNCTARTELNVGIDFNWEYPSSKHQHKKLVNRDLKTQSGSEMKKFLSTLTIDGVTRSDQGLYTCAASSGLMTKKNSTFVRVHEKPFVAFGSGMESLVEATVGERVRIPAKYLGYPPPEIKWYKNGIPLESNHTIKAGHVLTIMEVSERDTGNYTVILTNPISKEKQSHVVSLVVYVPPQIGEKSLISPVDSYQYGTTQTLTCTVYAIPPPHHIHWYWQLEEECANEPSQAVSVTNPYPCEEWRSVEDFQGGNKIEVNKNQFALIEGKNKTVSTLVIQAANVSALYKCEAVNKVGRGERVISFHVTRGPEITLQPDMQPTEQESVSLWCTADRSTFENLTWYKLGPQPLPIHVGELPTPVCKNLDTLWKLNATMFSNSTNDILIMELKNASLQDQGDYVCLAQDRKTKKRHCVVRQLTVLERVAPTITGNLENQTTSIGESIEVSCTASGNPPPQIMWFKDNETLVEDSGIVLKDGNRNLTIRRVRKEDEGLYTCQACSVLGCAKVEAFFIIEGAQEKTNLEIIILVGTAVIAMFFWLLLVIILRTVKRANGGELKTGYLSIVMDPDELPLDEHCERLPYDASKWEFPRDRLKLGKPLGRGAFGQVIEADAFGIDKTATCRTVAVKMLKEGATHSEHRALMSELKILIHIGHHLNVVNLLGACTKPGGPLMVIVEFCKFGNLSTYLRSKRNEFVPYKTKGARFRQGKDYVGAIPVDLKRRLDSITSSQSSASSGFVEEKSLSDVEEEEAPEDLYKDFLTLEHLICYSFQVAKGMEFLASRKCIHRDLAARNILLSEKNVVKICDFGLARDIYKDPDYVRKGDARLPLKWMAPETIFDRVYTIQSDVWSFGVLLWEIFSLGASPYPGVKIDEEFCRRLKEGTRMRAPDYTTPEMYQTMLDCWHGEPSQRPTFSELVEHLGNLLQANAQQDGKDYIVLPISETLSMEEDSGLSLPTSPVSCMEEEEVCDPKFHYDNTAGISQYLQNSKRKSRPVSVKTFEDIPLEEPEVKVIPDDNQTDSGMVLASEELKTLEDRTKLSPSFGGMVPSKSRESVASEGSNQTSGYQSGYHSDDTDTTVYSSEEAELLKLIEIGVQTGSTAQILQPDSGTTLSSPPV
T1 sequence (P35917 25-1363): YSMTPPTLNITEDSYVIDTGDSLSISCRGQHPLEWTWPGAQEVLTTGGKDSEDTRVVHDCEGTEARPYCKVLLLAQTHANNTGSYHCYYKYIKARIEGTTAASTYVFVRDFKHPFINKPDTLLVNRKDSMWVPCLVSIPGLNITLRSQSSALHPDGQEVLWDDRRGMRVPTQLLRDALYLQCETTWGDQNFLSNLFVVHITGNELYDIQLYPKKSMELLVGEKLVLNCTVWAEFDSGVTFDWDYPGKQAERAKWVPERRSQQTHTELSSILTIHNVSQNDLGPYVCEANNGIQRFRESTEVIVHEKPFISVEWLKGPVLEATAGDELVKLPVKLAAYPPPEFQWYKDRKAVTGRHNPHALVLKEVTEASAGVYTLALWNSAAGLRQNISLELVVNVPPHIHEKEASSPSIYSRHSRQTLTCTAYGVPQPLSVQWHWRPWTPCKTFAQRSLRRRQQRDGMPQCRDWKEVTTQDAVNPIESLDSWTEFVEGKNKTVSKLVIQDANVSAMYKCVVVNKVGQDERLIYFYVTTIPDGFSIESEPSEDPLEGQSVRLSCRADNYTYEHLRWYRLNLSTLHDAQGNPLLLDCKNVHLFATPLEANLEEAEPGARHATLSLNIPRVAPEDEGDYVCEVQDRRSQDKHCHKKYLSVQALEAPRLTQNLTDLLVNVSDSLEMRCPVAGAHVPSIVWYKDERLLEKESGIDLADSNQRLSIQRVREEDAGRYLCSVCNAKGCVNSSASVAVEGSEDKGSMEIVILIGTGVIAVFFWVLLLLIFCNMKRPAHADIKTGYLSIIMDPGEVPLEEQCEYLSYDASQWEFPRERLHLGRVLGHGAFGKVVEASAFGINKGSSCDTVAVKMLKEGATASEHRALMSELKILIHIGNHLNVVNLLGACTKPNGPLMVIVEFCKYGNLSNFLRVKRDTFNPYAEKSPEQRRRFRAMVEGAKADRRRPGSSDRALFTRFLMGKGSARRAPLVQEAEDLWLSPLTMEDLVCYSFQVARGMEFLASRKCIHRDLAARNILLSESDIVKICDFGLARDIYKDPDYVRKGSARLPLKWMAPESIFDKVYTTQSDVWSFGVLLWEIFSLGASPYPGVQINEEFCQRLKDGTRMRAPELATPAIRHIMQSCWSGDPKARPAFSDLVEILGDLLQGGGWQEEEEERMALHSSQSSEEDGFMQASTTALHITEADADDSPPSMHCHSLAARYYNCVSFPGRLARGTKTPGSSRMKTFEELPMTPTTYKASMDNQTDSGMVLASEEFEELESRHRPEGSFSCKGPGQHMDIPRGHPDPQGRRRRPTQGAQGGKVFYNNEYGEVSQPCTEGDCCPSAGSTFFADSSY

Consider `CCn1c(N)c(-c2ncc[nH]2)c(=O)c2ccc(C#C[C@@](C)(O)COC)nc21` [EVT801], for which the IC50 at VEGFR-3 turned out to be 151 nM; on VEGFR-2, 130 nM; in the assay on hLMVEC (read-out: IC50, inhibition of VEGF-A-induced hLMVEC proliferation), 155 nM; in the assay on hLMVEC (read-out: IC50, inhibition of VEGF-C-induced hLMVEC proliferation), 15 nM; in the assay on hLMVEC (read-out: IC50, inhibition of VEGF-D-induced hLMVEC proliferation), 8 nM. In addition, the “maximum inhibition of VEGF-A-induced hLMVEC proliferation” value with hLMVEC (VEGF-A) is on record as 65%. For the same compound, the “maximum inhibition of VEGF-C-induced hLMVEC proliferation” value with hLMVEC (VEGF-C) worked out at 74%. Also, the “maximum inhibition of VEGF-D-induced hLMVEC proliferation” value in the assay on hLMVEC (VEGF-D) came out at 100%.
